Key:
Assay in all cases: relative viability (nuclei count vs DMSO), 5 days (fraction); higher = more cells survive
[1] = compound: C[As](C)SC[C@H](NC(=O)CC[C@H](N)C(=O)O)C(=O)NCC(=O)O [Darinaparsin] + Nc1ncn([C@H]2C[C@H](O)[C@@H](CO)O2)c(=O)n1 [Decitabine] (partner 2 µM)
In short: (§1)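 Dosing by pin tool came one day after lung cancer cell lines were seeded in 1536-well plates, using either one drug or a fixed anchor-drug dose plus five library-drug doses (not always all listed) in √10 steps. After 5 days, nuclei were counted on 4× images. Relative viability is treated-well nuclei count divided by vehicle-well nuclei count, and values are medians of duplicate plates.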

AZ628 + Decitabine = compound: CC1=C(C=C(C=C1)NC(=O)C2=CC(=CC=C2)C(C)(C)C#N)NC3=CC4=C(C=C3)N=CN(C4=O)C [AZ628] + Nc1ncn([C@H]2C[C@H](O)[C@@H](CO)O2)c(=O)n1 [Decitabine] (partner 2 µM)
In short: as §1

[2] = compound: C[As](C)SC[C@H](NC(=O)CC[C@H](N)C(=O)O)C(=O)NCC(=O)O [Darinaparsin] + CS(=O)(=O)N1CCN(Cc2cc3nc(-c4cccc5[nH]ncc45)nc(N4CCOCC4)c3s2)CC1 [Pictilisib] (partner 1 µM)
In short: as §1

Darinaparsin + Foretinib = compound: C[As](C)SC[C@H](NC(=O)CC[C@H](N)C(=O)O)C(=O)NCC(=O)O [Darinaparsin] + COc1cc2c(Oc3ccc(NC(=O)C4(C(=O)Nc5ccc(F)cc5)CC4)cc3F)ccnc2cc1OCCCN1CCOCC1 [Foretinib] (partner 0.25 µM)
In short: as §1

Cell Line: LCLC-97TM1
- relative viability ([1]; first compound 0.08 µM): 0.246
- relative viability ([1]; first compound 0.8 µM): 0.252
- relative viability ([1]; first compound 2.53 µM): 0.211
- relative viability ([1]; first compound 8 µM): 0.258
- relative viability (AZ628 + Decitabine; first compound 0.08 µM): 0.276
- relative viability (AZ628 + Decitabine; first compound 0.253 µM): 0.265
- relative viability (AZ628 + Decitabine; first compound 0.8 µM): 0.257
- relative viability (AZ628 + Decitabine; first compound 2.53 µM): 0.199
- relative viability (AZ628 + Decitabine; first compound 8 µM): 0.13
- relative viability ([2]; first compound 0.08 µM): 0.191
- relative viability ([2]; first compound 0.8 µM): 0.153
- relative viability ([2]; first compound 2.53 µM): 0.15
- relative viability ([2]; first compound 8 µM): 0.178
- relative viability (Darinaparsin + Foretinib; first compound 0.08 µM): 0.981
- relative viability (Darinaparsin + Foretinib; first compound 0.8 µM): 0.882
- relative viability (Darinaparsin + Foretinib; first compound 2.53 µM): 0.824
- relative viability (Darinaparsin + Foretinib; first compound 8 µM): 1.04

From the supplement of paper PMC10307832
